# Publication PMC7785057 (ACS catalysis, 2020)
# Molecular target: NmSiaDW (Neisseria meningitidis, UniProt O33390)
# Assay: sialyltransferase kinetics, varied acceptor
# Format: biochemical
# Details: α2–6-sialyltransferase activity, fixed concentration of CMP-Neu5Ac
smiles,measurement,value
CC(=O)N[C@H]1[C@H]([C@H](O)[C@H](O)CO)O[C@@](OC[C@H]2O[C@H](O[C@H]3C[C@](OCCCNC(=O)OCc4ccccc4)(C(=O)O)O[C@@H]([C@H](O)[C@H](O)CO)[C@@H]3NC(C)=O)[C@H](O)[C@@H](O)[C@H]2O)(C(=O)O)C[C@@H]1O[C@H]1O[C@H](CO)[C@H](O)[C@H](O)[C@H]1O [G4],Km,240 ± 40 µM
